Results filed as inconclusive are left out. Active and inactive are the calls of the source. How the calls were made is not given here.

The test system of the data set is S. typhimurium/E. coli reverse mutation, colony counts. Put plainly: Bacterial reverse mutation test (aka Ames test) summary data.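 Further: His-minus Salmonella and trp-minus E. coli WP2 uvrA pKM101 with or without liver S9.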 From the text:
The Ames test uses bacteria cultures to determine whether a substance causes mutations. Because there is a significant overlap between substances that are mutagens and those that are carcinogens, a quick and inexpensive mutagenicity test is useful as an initial screening for possible carcinogens.
The Ames test relies on specific strains of S. typhimurium, namely: TA97, TA98, TA100, TA102, TA104, TA1535, TA1537, and TA1538. In addition to the S. typhimurium strains, the test may also use the E. coli strain WP2 uvrA pKM101.
Each of the bacterial strains has a mutation that prevents it from making an amino acid (a protein building block) required for normal cell growth. The S. typhimurium strains are unable to manufacture histidine; the E. coli strain cannot manufacture tryptophan. The tester strains will not be able to grow without amino acid supplementation, unless the mutated gene is changed back to the correct DNA sequence (reversion mutation). Being exposed to a mutagenic chemical increases the chance that the mutant gene will be restored to the correct sequence, which allows the bacteria to grow and form colonies. Each substance under study is tested in a variety of bacterial strains with different types of altered DNA sequences in order to provide a comprehensive assessment of the mutagenic potential of the substance.
Some non-mutagenic substances are converted to mutagenic substances when metabolized by the liver; in contrast, some substances that are mutagenic in their natural state are converted to non-mutagens by the liver. All substances are tested in their natural state, as well as in the presence of liver enzymes that can produce this metabolic conversion of the test substance. Extracts of rat, hamster, or mouse liver enzymes (S9 mix) are used for this purpose.
D. Preparing the Cultures
Multiple sets of cultures are prepared using a range of doses and different amounts of liver enzymes for each bacterial strain. Each culture is prepared in a test tube containing a suspension of one bacterial strain and either an S9 mix or plain buffer solution. Then the test substance is added. Negative control cultures are established using the same ingredients, but without the test substance. Positive control cultures are established using known mutagens active in particular bacterial strains and metabolic conditions (for example, with or without S9). Once prepared, each culture is incubated for 20 minutes at 37° C. Agar is then added to the cultures, and the contents of each tube are poured onto the surface of a Petri dish that was prepared with standard bacterial culture medium. The plates are then incubated, usually for two days.
Depending on the substance to be tested, the exposure and incubation processes may be modified. These variations include:
- Elimination of the 20-minute incubation period in a test tube prior to plating (this method is referred to as the standard plate incorporation method)
- Enzymatic reduction of azo and diazo substances (this process occurs in the intestine or liver of animals) using a chemical called flavin mononucleotide (FMN) or intestinal bacterial preparations from rats
- Testing in sealed chambers such as desiccators for volatile and gaseous chemicals.
To validate the test, a trained investigator compares the number of colonies on the chemical-treated plates to the number of colonies on the negative control plates. If the substance under test is mutagenic, the chemical-treated plates will have a much greater number of colonies than the negative control plates.
- A positive response is a reproducible, dose-related increase in mutant colonies in any single strain, with or without the addition of S9 metabolic enzymes. While there is no minimum percentage of increase required for a result to be considered positive, a twofold increase in mutant colonies in a treated plate is usually considered to be a positive (mutagenic) response.
[…]
As to `CCOC(=O)C1OC1(C)c1ccccc1` (centres undefined), the outcome is “inactive; negative”. The value for `Nc1ccc(Cc2ccc(N)c(Cc3ccc(N)cc3)c2)cc1` was “active; positive”; that for `CCC[N+](CCC)(CCC)CCC` was “active; weakly positive”; that for `O=C(O)CS` was “inactive; negative”. The value for `CCC(Br)(CC)C(=O)NC(N)=O` was “inactive; negative”; that for `Brc1ccc(Oc2cc(Br)c(Br)cc2Br)c(Br)c1` was “inactive; negative”; that for `ClCC(Cl)(Cl)Cl` was “inactive; negative”. Turning to `COc1c2occc2cc2ccc(=O)oc12`, the outcome is “active; positive”.

As to `CCOC(N)=O`, the outcome was “active; positive”.

`CCC(C(N)=O)(C(N)=O)c1ccccc1`: the outcome was “active; weakly positive”. As to `NC1NC=CS1` (centres undefined), the outcome was “active; positive”. The value for `O=[N+]([O-])c1ccc(O)c([N+](=O)[O-])c1` was “inactive; negative”; that for `CC=Cc1ccc(O)c(OC)c1` was “inactive; negative”. The value for `CS(=O)(=O)c1ccc(O)c(N)c1` was “inactive; negative”.

`CCCCCc1cc(O)cc(O)c1`: the outcome was “inactive; negative”. As for `CCCCC(=O)OCC`, the outcome was “inactive; negative”. In the case of `CCC(C)Nc1ccc(NC(C)CC)cc1` (centres undefined), the outcome is “inactive; negative”. The value for `C[CH2][Pb]([Cl])([CH2]C)[CH2]C` was “inactive; negative”; that for `c1ccc2n[nH]nc2c1` was “active; weakly positive”. The value for `Oc1ccccc1` was “inactive; negative”.

Take `NC(=O)NO`: the outcome is “inactive; negative”. The value for `C=C(C)C(=O)OCC(Br)CBr` (centres undefined) was “active; positive”; that for `CCOC(=O)CC(SP(=O)(OC)OC)C(=O)OCC` (centres undefined) was “inactive; negative”. In the case of `CCN(CC)c1ccc2c(C)cc(=O)oc2c1`, the outcome was “inactive; negative”. With `CCNc1nc(Cl)nc(NC(C)C)n1`, the outcome is “inactive; negative”. The value for `NCCC(=O)O` was “inactive; negative”. On to `CN(CCO)CCO`, for which the outcome is “inactive; negative”.

As to `ClC1C(Cl)C(Cl)C(Cl)C(Cl)C1Cl` (centres undefined), the outcome was “inactive; negative”. The value for `BrCC1CO1` (centres undefined) was “active; positive”; that for `Cc1cccc(C)c1O` was “inactive; negative”. The value for `C=CC(=O)NC(C)(C)CC(C)=O` was “inactive; negative”; that for `C[C@H](CCC(=O)O)[C@H]1CC[C@H]2[C@@H]3CC[C@@H]4C[C@H](O)CC[C@]4(C)[C@H]3CC[C@]12C` was “inactive; negative”. As to `CNCCS(=O)(=O)O`, the outcome is “inactive; negative”. Consider `O=C(O)C(Cl)Br` (centres undefined), for which the outcome was “active; positive”. The value for `Cc1cccc([N+](=O)[O-])c1C` was “active; positive”. The value for `C1=CCCC=CCC1.C1=CCCC=CCC1.[Ni]` was “active; positive”; that for `Cc1c(C)c2c(c(C)c1OC(=O)CCC(=O)O)CC[C@@](C)(CCC[C@H](C)CCC[C@H](C)CCCC(C)C)O2` was “inactive; negative”; that for `OCc1c[nH]c2ccccc12` was “active; positive”.

For `CCC(CO)(CO)[N+](=O)[O-]`, the outcome is “inactive; negative”. The value for `Cc1cc([N+](=O)[O-])ccc1N` was “active; positive”; that for `C=CC` was “active; positive”. With `Cc1c[nH]c(=S)[nH]c1=O`, the outcome was “inactive; negative”. For `Cc1cc(-c2ccc(N=Nc3cc(S(=O)(=O)O)c4ccccc4c3N)c(C)c2)ccc1N=Nc1cc(S(=O)(=O)O)c2ccccc2c1N`, the outcome was “inactive; negative”. In the case of `O=C1OC(c2ccc(O)cc2)(c2ccc(OC3O[C@H](C(=O)O)[C@@H](O)[C@H](O)[C@H]3O)cc2)c2ccccc21` (some centres undefined), the outcome is “inactive; negative”. The value for `[Co]` was “active; positive”; that for `CCCCCCCC/C=C\CCCCCCCC(=O)N(CCO)CCO` was “inactive; negative”.

Turning to `O=[N+]([O-])c1c(Cl)c(Cl)cc(Cl)c1Cl`, the outcome is “active; weakly positive”.

`N[C@@H](CCC(=O)O)C(=O)O`: the outcome is “inactive; negative”.

In the case of `C=CC#N`, the outcome is “active; positive”.

As for `O=C(/C=C/C=C/c1ccc2c(c1)OCO2)N1CCCCC1`, the outcome is “inactive; negative”. The value for `c1ccc2c(c1)Nc1ccccc1S2` was “inactive; negative”; that for `OCCOCCOCCO` was “active; positive”. For the compound `C=C(C)C(=O)OCCCC`, the outcome is “inactive; negative”. Turning to `Nc1ccc(S(=O)(=O)Nc2ccccn2)cc1`, the outcome is “inactive; negative”.

As for `Clc1ccc2ccccc2c1`, the outcome was “inactive; negative”. The value for `O=C1c2cccc(O)c2C(=O)c2c(O)cccc21` was “active; weakly positive”; that for `C=CCCl` was “active; positive”. The value for `Clc1ccc(COC(Cn2ccnc2)c2ccc(Cl)cc2Cl)cc1` (centres undefined) was “inactive; negative”. As to `COc1cccc(N)c1`, the outcome is “active; positive”.

Consider `N#CCCCl`, for which the outcome was “active; positive”. Take `CN(C)c1ccc(C(=C2C=CC(=[N+](C)C)C=C2)c2ccccc2)cc1`: the outcome is “inactive; negative”. The value for `CCCCOCCCC` was “inactive; negative”. `CN(C)c1ccc(N=NS(=O)(=O)O)cc1`: the outcome is “active; positive”. The value for `O=[N+]([O-])c1cccc2cccc([N+](=O)[O-])c12` was “active; positive”. The value for `O=C(Nc1ccc(Br)cc1)c1cc(Br)cc(Br)c1O` was “inactive; negative”; that for `c1ccc2c(c1)ccc1cc3c(ccc4ccccc43)cc12` was “active; positive”. The value for `CCCC(=O)Cl` was “active; weakly positive”. As to `Cc1ccccc1C`, the outcome was “inactive; negative”. The value for `C=C(C)[C@H]1CC=C(C)CC1` was “inactive; negative”; that for `COc1ccc(CCC(=O)c2c(O)cc(O[C@@H]3O[C@H](CO)[C@@H](O)[C@H](O)[C@H]3O[C@@H]3O[C@@H](C)[C@H](O)[C@@H](O)[C@H]3O)cc2O)cc1O` was “inactive; negative”. The value for `CC(C)Br` was “active; positive”; that for `C=CC(=O)OCCOCCOC(=O)C=C` was “inactive; negative”; that for `CCCCCCCC/C=C\CCCCCCCC(=O)OC` was “inactive; negative”.

Take `CC(=O)c1c(=O)cc(C)oc1=O`: the outcome was “inactive; negative”. The value for `Oc1ccc(Cl)c(Cl)c1Cl` was “inactive; negative”; that for `CCOC(=O)CC(SP(=S)(OC)OC)C(=O)OCC` (centres undefined) was “inactive; negative”; that for `OC1C2(Cl)C3(Cl)C4(Cl)C(Cl)(Cl)C5(Cl)C3(Cl)C1(Cl)C5(Cl)C24Cl` (centres undefined) was “inactive; negative”. The value for `C=CCOC(=O)C=C` was “inactive; negative”; that for `CC(=O)O[C@]1(C(C)=O)CC[C@H]2[C@@H]3C[C@H](C)C4=CC(=O)CC[C@]4(C)[C@H]3CC[C@@]21C` was “inactive; negative”.
